Measurements published in PubChem BioAssay (NCI).
Values joined by “and” are separate entries in the source; they are usually repeats but may differ in a detail not shown here. Equal entries are not always repeated.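 96-well plates; 48 h exposure; 5 concentrations. Endpoints by linear interpolation between flanking doses. Not reached: highest tested concentration assigned. The concentration for 50% growth inhibition is given as GI50. TGI: concentration producing complete growth inhibition.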 Where a SMILES comes first, the peptide text is derived from it. [ ]: non-standard residue; d: D form. Orn = NCCC[CH](N)C(=O)O

Assays:
Assay in all cases: NCI anticancer screen, dose series, 48 h
SK-MEL-5 melanoma = system: SK-MEL-5 melanoma
HCC-2998 colon = system: HCC-2998 colon
OVCAR-5 ovarian = system: OVCAR-5 ovarian
COLO 205 colon = system: COLO 205 colon
UACC-62 melanoma = system: UACC-62 melanoma
A498 renal = system: A498 renal
MDA-MB-435 = system: MDA-MB-435
UO-31 renal = system: UO-31 renal
OVCAR-4 ovarian = system: OVCAR-4 ovarian
T-47D breast = system: T-47D breast

SMILES	GI50 (SK-MEL-5 melanoma)	TGI (SK-MEL-5 melanoma)	GI50 (HCC-2998 colon)	TGI (HCC-2998 colon)	GI50 (OVCAR-5 ovarian) [µM]	TGI (OVCAR-5 ovarian)	GI50 (COLO 205 colon)	TGI (COLO 205 colon)	GI50 (UACC-62 melanoma)	TGI (UACC-62 melanoma)	GI50 (A498 renal)	GI50 (MDA-MB-435)	TGI (MDA-MB-435)	GI50 (UO-31 renal)	TGI (UO-31 renal)	GI50 (OVCAR-4 ovarian)	TGI (OVCAR-4 ovarian) [µM]	GI50 (T-47D breast) [µM]	TGI (T-47D breast)	TGI (A498 renal)
COc1cc([C@@H]2c3cc4c(cc3[C@H](O)[C@H]3COC(=O)[C@@H]23)OCO4)cc(OC)c1OC	0.351 µM and 0.0355 µM	1.8 µM and 0.254 µM	0.948 µM and 0.159 µM	> 6.16 µM and 0.647 µM	0.721	> 100 µM	0.347 µM and 0.132 µM	1.3 µM and 0.431 µM	0.407 µM and 0.153 µM	> 100 µM	0.239 µM and 0.451 µM	0.124 µM and 0.0315 µM	0.377 µM and 0.132 µM	0.48 µM and 0.602 µM	> 100 µM	1.03 µM and 4.92 µM	> 100	0.405	4.64 µM	
COc1cc2c3c(n(CCCN4CCOCC4)c(=O)c2cc1OC)-c1cc2c(cc1C3=O)OCO2	1.34 µM	12.2 µM	10.7 µM	65.4 µM	67.5	> 100 µM	40.4 µM	> 100 µM	0.193 µM	2.29 µM	7.53 µM	28 µM	> 84.4 µM	5.87 µM	> 100 µM	51 µM	> 100	> 50.8	> 100 µM	54 µM
C(#Cc1ccccc1C#Cc1ccccn1)c1ccc(OCCCCCCOc2ccc(C#Cc3ccccc3C#Cc3ccccn3)cc2)cc1	1.73 µM	7.26 µM	6.83 µM	13.3 µM	5.93	13.8 µM	8.35 µM	15.6 µM	0.35 µM	5.46 µM	5.93 µM	1.69 µM	9.71 µM	2.02 µM	21.4 µM	2.7 µM	11.5	1.52	14.1 µM	12.1 µM
Cn1c2ccccc2c(=S)c2cc(NC(=O)CCCCC(=O)Nc3ccc4c(c3)c(=S)c3ccccc3n4C)ccc21		> 100 µM		> 100 µM		> 100 µM		> 100 µM		> 100 µM			> 100 µM		> 100 µM				> 100 µM	> 100 µM
O=C(O)c1cn(C2CC2)c2cc(N3CCN(C(=O)Nc4nc(-c5ccc(Cl)cc5)cs4)CC3)c(F)cc2c1=O	1.76 µM	3.92 µM	4.09 µM	> 100 µM	3.4	> 100 µM	3.32 µM	> 100 µM	2.4 µM	37.9 µM	1.47 µM	2.75 µM	> 100 µM	0.596 µM	33.7 µM	3.61 µM	> 100	1.65	> 100 µM	9.46 µM
CCOC(=O)C1=C(N)Oc2cc(OC)ccc2C1c1ccc(F)c(F)c1 (configuration not stated)	1.68 µM	12.6 µM	4.14 µM	18.4 µM	10.5	24.1 µM	1.05 µM	8.97 µM	0.558 µM	15.4 µM	1.29 µM	0.229 µM	0.844 µM	5.22 µM	19.7 µM	3.37 µM	18.6	1.72	20 µM	11.9 µM
Cn1cc(C2=C(c3cccc(NCC(O)CO)c3)C(=O)NC2=O)c2cc(Cl)ccc21 (configuration not stated)	3.32 µM	7.14 µM	6.56 µM	17.9 µM	9.63	> 20.9 µM	2.74 µM	6.17 µM	4.66 µM	11.6 µM	0.0817 µM	5.9 µM	> 20.6 µM	5.99 µM	17.6 µM	1.87 µM	11.6	4.29	15 µM	4.43 µM
CNC(=S)N/N=C(/C)CCC/C(C)=N/NC(=S)NC		> 100 µM				> 100 µM		> 100 µM		> 100 µM			> 100 µM		> 100 µM		29.2		> 100 µM	> 100 µM
CC(C)CC1NC(=O)C(CCCN)NC(=O)C(C(C)C)NC(=O)C2CCCN2C(=O)C(Cc2ccccc2)NC(=O)C(CC(C)C)NC(=O)C(CCCN)NC(=O)C(C(C)C)NC(=O)C2CCCN2C(=O)C(Cc2ccccc2)NC1=O (configuration not stated) (cyclo(FPV[Orn]LFPV[Orn]L); configuration not given here)	0.00725 µM	0.0199 µM and 0.0229 µM	< 0.00325 µM	1.29 µM and 1.74 µM	0.0117	0.968 µM and 1.98 µM	< 0.00325 µM	0.00419 µM	< 0.0123 µM and 0.0315 µM	0.443 µM and 1.26 µM	0.092 µM and 0.106 µM	0.00425 µM	0.371 µM and 1.21 µM	0.599 µM and 1.64 µM	3.61 µM and 6.37 µM	0.0133 µM		< 0.00325	0.433 µM and 1.24 µM	0.743 µM and 0.632 µM
COc1ccc(-c2oncc2-c2cc(OC)c3c(c2)OCO3)cc1	2.84 µM	14.1 µM	6.36 µM	> 100 µM	5.14	> 100 µM	2.8 µM	10.4 µM	2.85 µM	57.7 µM	1.49 µM	0.275 µM	1.27 µM	4.46 µM	55.9 µM	10 µM	> 100	4.29	> 100 µM	7.4 µM
O=S(=O)(c1ccccc1)C1CN(Cc2ccccc2)CCN(Cc2ccccc2)C1		59.3 µM		> 100 µM		> 100 µM		> 100 µM		> 68.1 µM			86.6 µM		77.3 µM		> 72.6		> 100 µM	> 100 µM
COc1ccc(/C=C2\CCCC3=C2N=C2SC=NN2C3c2ccc(OC)c(OC)c2)cc1OC (configuration not stated)	16.4 µM	> 100 µM	> 100 µM	> 100 µM	47.7	> 100 µM	7.58 µM	> 100 µM	4.21 µM	80 µM	2.76 µM	3.51 µM	42.8 µM	15.3 µM	> 100 µM			5.21	> 100 µM	40.8 µM
Cn1cc(-c2nc(-c3cn(C)c4ncccc34)cs2)c2cc(F)ccc21	0.847 µM	3.37 µM	0.962 µM	24.2 µM	3.54	> 100 µM	1.44 µM	7.49 µM	1.33 µM	> 100 µM	1.91 µM	0.237 µM	0.713 µM			0.746 µM	> 100	0.648	23.2 µM	31.3 µM
